Experiment [1] concerns PA1170 pancreatic cancer patient-derived xenograft model. Description: Antitumor activity in PA1170 pancreatic cancer PDX model, confirmation study (Biological Example 3). It is filed as in vivo, mice. Particulars: for RTV @ D29 / T/C (%) @ D29: day 29, Example 24 10 mg/kg IV, olaparib 50 mg/kg p.o. BID, trametinib 0.3 mg/kg p.o. QD, 4 weeks.
Experiment [2] deals with murine pancreatic cancer model mPA6115. Briefly: Antitumor activity in murine pancreatic cancer model mPA6115 (Biological Example 2).
Text: C57BL/6, female, 6-8 weeks, weighing approximately 18-20 g, which were purchased from Shanghai Lingchang Biotechnology Co., Ltd (Shanghai, China).
mPA6115 is a murine pancreatic cancer cell line carries a conditional mutant KRAS (KrasLSL-G12D/WT), a constitutive deletion of TP53 (p53−/−) and a Cre driven by the promoter of Pdx1 gene.
Fresh tumor tissues from mice bearing established primary cancer tissues were harvested and cut into small pieces (approximately 2-3 mm in diameter). Tumor fragments, harvested from donor mice, were inoculated subcutaneously at the upper right dorsal flank into corresponding female C57BL/6 mice for tumor development. Treatments were started when the average tumor size reached approximately 150 mm^3. Randomization were performed based on “Matched distribution” method/“Stratified” method using the multi-task method (StudyDirector™ software, version 3.1.399.19)/randomized block design. Each group consisted of 6 tumor-bearing mice.
The test system of experiment [3] is Panc-1 human pancreatic cancer xenograft model. Conditions: Panc-1 xenograft, day 27; abraxane 30 mg/kg i.v. QW×3w, gemcitabine 120 mg/kg i.p. QW×3w.
For experiment [4], the system named is pancreatic cancer patient derived xenograft model PA6265. Description: Antitumor activity in subcutaneous pancreatic cancer PDX model PA6265 (Biological Example 1). It is filed as in vivo, BALB/c nude mice. Conditions: olaparib 50 mg/kg p.o. BID, trametinib 0.3 mg/kg p.o. QD, 4 weeks; for T/C (%) @ D29: day 29 (text: day 28), Example 24 10 mg/kg i.v. QW; for RTV @ D29: day 29, Example 24 10 mg/kg i.v. QW. An excerpt: (§1) Balb/c nude, female, 4-6 weeks, weighing approximately 18-22 g, which were purchased from GemPharmatech Co., Ltd (Nanjing, Jiangsu).
(§2) All of the PDX models were originally established from a surgically resected clinical sample (cancer type: pancreatic adenocarcinoma), and implanted in nude mice defined as passage 0 (P0). The next passage implanted from P0 tumor was defined as passage1 (P1), and so on during continual implantation in mice. The frozen tumor fragments were revived in NOD SCID mice, when the tumors were developed to suitable size, they were passaged to Balb/c nude mice. The P4-P7 tumors were used for the study.
(§3) Each group consisted of 5 tumor-bearing mice.
(§4) The protocol and any amendment(s) or procedures involving the care and use of animals in this study were reviewed and approved by the Institutional Animal Care and Use Committee (IACUC) of CrownBio prior to execution. During the study, the care and use of animals were conducted in accordance with the regulations of the Association for Assessment and Accreditation of Laboratory Animal Care (AAALAC). After tumor inoculation, the animals were checked daily for morbidity and mortality. During routine monitoring, the animals were checked for any effects of tumor growth and treatments on behavior such as mobility, food and water consumption, body weight gain/loss, eye/hair matting and any other abnormalities. Mortality and observed clinical signs were recorded for individual animals in detail.
(§5) After randomization, tumor volumes were measured twice per week in two dimensions using a caliper, and the volume was expressed in mm^3 using the formula: […]
(§6) where V is tumor volume, L is tumor length (the longest tumor dimension) and W is tumor width (perpendicular to L). Body weight was measured twice per week. Dosing as well as tumor and body weight measurements were conducted in a Laminar Flow Cabinet. The body weights and tumor volumes were measured by using StudyDirector™ software (version 3.1.399.19).
(§7) Relative tumor volume (RTV) was calculated using the following formula: […]
(§8) where V1 and Vt are the average tumor volumes on the first day of treatment (day 1) and the average tumor volumes on a certain time point (day t).
(§9) Synergy score was calculated using the following formula described in Clarke R. Issues in experimental design and endpoint analysis in the study of experimental cytotoxic agents in vivo in breast cancer and other models[J]. Breast Cancer Research & Treatment, 1997, 46(2-3):255-278, which is incorporated by reference in its entirety:
(§10) Synergy score=((A/C)×(B/C))/(AB/C),
(§11) where A is RTV value of drug A; B is RTV value of drug B; C is RTV value of vehicle control. AB is RTV value of combination treatment with A and B. Synergy scores: >1 represents synergistic, =1 represents additive, <1 represents antagonistic (referring to Gould S E et al. Translational value of mouse models in oncology drug development. Nature medicine. 2015 21, 431-439).
(§12) Standard NCI procedures were used to calculate tumor parameters. Percent tumor growth inhibition (% T/C) was calculated as the mean RTV of treated tumors (T) divided by the mean RTV of control tumors (C)×100%. The percentage T/C value is an indication of antitumor effectiveness: a value of T/C<42% is considered significant antitumor activity by the NCI. A T/C value <10% is considered to indicate highly significant antitumor activity, and is the level used by the NCI to justify a clinical trial if toxicity and certain other requirements are met (termed DN-2 level activity). A body weight loss nadir (mean of group) of greater than 20%, or greater than 20% of drug deaths are considered to indicate an excessively toxic dosage.
(§13) The antitumor activity curves of test articles were plotted with the observation time on the X-axis, and corresponding tumor volume (geometric mean) on the Y-axis. A two-tailed t-test was employed to analyze the statistical significance of any difference between the treatment group and the control group. […]

The subject of experiment [5] is pancreatic cancer patient derived xenograft (PDX) model PA1170. Description: Antitumor activity in subcutaneous pancreatic cancer PDX model PA1170 (Biological Example 1). Format: in vivo, BALB/c nude mice. Particulars: day 28, Example 24 10 mg/kg i.v. QW, olaparib 50 mg/kg p.o. BID, trametinib 0.3 mg/kg p.o. QD, 4 ws.
Text: as §1, §2, §3, §4, §5, §6, §7, §8, §9, §10, §11, §12, §13

Where [6] appears, read: mPA6115, day 21, Example 24 0.2 mg/kg i.v. BIW×3w, abraxane 15 mg/kg i.v. QW×3w, gemcitabine 120 mg/kg i.p. QW×3w.

SMILES strings stand for the structures. Values joined by “and” are separate entries in the source; they are usually repeats but may differ in a detail not shown here. Equal values may be shown once.

As to `CN[C@@H](C)C(=O)N[C@H]1CN(S(=O)(=O)c2cccc(S(=O)(=O)N3CC[C@H]4CC[C@@H](C(=O)NC(c5ccccc5)c5ccccc5)N4C(=O)[C@@H](NC(=O)[C@H](C)NC)C3)c2)CC[C@H]2CCC(C(=O)NC(c3ccccc3)c3ccccc3)N2C1=O` (stereo partly drawn) [the compound of Example 24], in experiment [1], the “RTV @ D29” value came to 4.29 ± 1.83; the “T/C (%) @ D29” value was 50.4% and 50.41%. In addition, the “Response @ D28” value in experiment [1] (responders/animals (CR, SD)) is 1/5 SD. Also, the “antitumor effect (in words)” value in experiment [2] (mPA6115, day 21, single agent 0.2 mg/kg i.v. BIW×3w) is “no antitumor effect”. For the same molecule, in experiment [2] (setting [6]), the “RTV @ D21” value is given as 32.77 ± 10.36 and the “T/C (%) @ D21” value is given as 144.28%. The “Response @ D21” value in experiment [2] (mPA6115, day 21, animals with PD or died / animals) is 5/6 PD, 1/6 died. Also, in experiment [3], the “RTV @ D27” value came to 2.63 ± 0.51; the “T/C (%) @ D27” value is 66.1% and 66.08%.

As for `O=C(c1cc(Cc2n[nH]c(=O)c3ccccc23)ccc1F)N1CCN(C(=O)C2CC2)CC1` [Olaparib], the “RTV @ D29” value in experiment [1] was 1.90 ± 1.13; in experiment [4] it was 4.07 ± 0.51. For the same molecule, the “T/C (%) @ D29” value stood at 22.33% in experiment [1], 22.3% in experiment [1] (listed as olaparib), 71.78% in experiment [4] and 72% in experiment [4] (listed as olaparib). Also, in experiment [5], the “RTV @ D28” value is 3.09 ± 0.73. For the same molecule, the “T/C (%) @ D28” value in experiment [5] came out at 32.15%; in experiment [5] (listed as olaparib), 32%.

Consider `CC(=O)Nc1cccc(-n2c(=O)n(C3CC3)c(=O)c3c(Nc4ccc(I)cc4F)n(C)c(=O)c(C)c32)c1` [Trametinib], for which the “RTV @ D29” value in experiment [1] is given as 7.34 ± 1.49; in experiment [4] it was 4.31 ± 0.98. In addition, the “T/C (%) @ D29” value came out at 86.25% in experiment [1], 86.3% in experiment [1] (listed as trametinib), 76.01% in experiment [4] and 76% in experiment [4] (listed as trametinib). The “RTV @ D28” value in experiment [5] amounted to 6.59 ± 0.41. The “T/C (%) @ D28” value in experiment [5] worked out at 68.57%; in experiment [5] (listed as trametinib), 69%.

The values are drawn from patent publication US20230029259A1, “COMBINATION OF IAP INHIBITORS AND PARP OR MEK INHIBITORS OR OTHER CHEMOTHERAPEUTIC AGENTS” (Ascentage Pharma (Suzhou) Co., Ltd., priority 2019, published 2023).
